# Assay results from PubChem BioAssay (NCI).
#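 Briefly, cells in 96-well plates were exposed to five compound concentrations for 48 h, and endpoints were estimated by linear interpolation. Definition used: TGI = concentration required for complete inhibition of growth.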
# What was measured:
# Assay in all cases: growth of human tumour cells (NCI), 48 h
# 786-0 renal = test system: 786-0 renal
# A498 renal = test system: A498 renal
# A549 NSCLC = test system: A549 NSCLC
# ACHN renal = test system: ACHN renal
# BT-549 breast = test system: BT-549 breast
# CAKI-1 renal = test system: CAKI-1 renal
# COLO 205 colon = test system: COLO 205 colon
# DU-145 prostate = test system: DU-145 prostate
# EKVX NSCLC = test system: EKVX NSCLC
# HCC-2998 colon = test system: HCC-2998 colon
# HCT-116 colon = test system: HCT-116 colon
# HCT-15 colon = test system: HCT-15 colon
# HL-60(TB) leukemia = test system: HL-60(TB) leukemia
# HOP-62 NSCLC = test system: HOP-62 NSCLC
# HS 578T breast = test system: HS 578T breast
# HT29 colon = test system: HT29 colon
# IGROV1 ovarian = test system: IGROV1 ovarian
# K-562 leukemia = test system: K-562 leukemia
# KM12 colon = test system: KM12 colon
# LOX IMVI melanoma = test system: LOX IMVI melanoma
# M14 melanoma = test system: M14 melanoma
# MALME-3M melanoma = test system: MALME-3M melanoma
# MCF7 breast = test system: MCF7 breast
# MDA-MB-231 breast = test system: MDA-MB-231 breast
# MDA-MB-435 = test system: MDA-MB-435
# MDA-N = test system: MDA-N
# MOLT-4 leukemia = test system: MOLT-4 leukemia
# NCI-H226 lung = test system: NCI-H226 lung
# NCI-H23 lung = test system: NCI-H23 lung
# NCI-H460 lung = test system: NCI-H460 lung
# NCI-H522 lung = test system: NCI-H522 lung
# NCI/ADR-RES ovarian = test system: NCI/ADR-RES ovarian
# OVCAR-3 ovarian = test system: OVCAR-3 ovarian
# OVCAR-4 ovarian = test system: OVCAR-4 ovarian
# OVCAR-5 ovarian = test system: OVCAR-5 ovarian
# OVCAR-8 ovarian = test system: OVCAR-8 ovarian
# PC-3 prostate = test system: PC-3 prostate
# RPMI-8226 leukemia = test system: RPMI-8226 leukemia
# RXF 393 renal = test system: RXF 393 renal
# SF-268 CNS = test system: SF-268 CNS
# SF-295 CNS = test system: SF-295 CNS
# SK-MEL-2 melanoma = test system: SK-MEL-2 melanoma
# SK-MEL-28 melanoma = test system: SK-MEL-28 melanoma
# SK-MEL-5 melanoma = test system: SK-MEL-5 melanoma
# SK-OV-3 ovarian = test system: SK-OV-3 ovarian
# SN12C renal = test system: SN12C renal
# SNB-19 CNS = test system: SNB-19 CNS
# SNB-75 CNS = test system: SNB-75 CNS
# SR leukemia = test system: SR leukemia
# SW-620 colon = test system: SW-620 colon
# T-47D breast = test system: T-47D breast
# U251 CNS = test system: U251 CNS
# UACC-62 melanoma = test system: UACC-62 melanoma
# UO-31 renal = test system: UO-31 renal
# CCRF-CEM leukemia = test system: CCRF-CEM leukemia
# HOP-92 NSCLC = test system: HOP-92 NSCLC
# SF-539 CNS = test system: SF-539 CNS
# TK-10 renal = test system: TK-10 renal
# UACC-257 melanoma = test system: UACC-257 melanoma
smiles,measurement,setting,value
C[C@@H](NC(=O)Nc1cccc(C(=O)Nc2cc(C(C)(C)C)ccc2C(=O)O)n1)c1ccccc1,TGI,786-0 renal,> 100 µM
same,TGI,A498 renal,> 100 µM
same,TGI,A549 NSCLC,> 100 µM
same,TGI,ACHN renal,> 100 µM
same,TGI,BT-549 breast,> 100 µM
same,TGI,CAKI-1 renal,> 100 µM
same,TGI,COLO 205 colon,60.6 µM
same,TGI,DU-145 prostate,> 100 µM
same,TGI,EKVX NSCLC,> 100 µM
same,TGI,HCC-2998 colon,> 100 µM
same,TGI,HCT-116 colon,44.1 µM
same,TGI,HCT-15 colon,> 100 µM
same,TGI,HL-60(TB) leukemia,> 100 µM
same,TGI,HOP-62 NSCLC,86.1 µM
same,TGI,HS 578T breast,> 100 µM
same,TGI,HT29 colon,> 100 µM
same,TGI,IGROV1 ovarian,> 100 µM
same,TGI,K-562 leukemia,> 100 µM
same,TGI,KM12 colon,> 100 µM
same,TGI,LOX IMVI melanoma,36.7 µM
same,TGI,M14 melanoma,> 100 µM
same,TGI,MALME-3M melanoma,> 100 µM
same,TGI,MCF7 breast,47.9 µM
same,TGI,MDA-MB-231 breast,50 µM
same,TGI,MDA-MB-435,> 100 µM
same,TGI,MDA-N,> 100 µM
same,TGI,MOLT-4 leukemia,> 100 µM
same,TGI,NCI-H226 lung,> 100 µM
same,TGI,NCI-H23 lung,> 100 µM
same,TGI,NCI-H460 lung,> 100 µM
same,TGI,NCI-H522 lung,> 100 µM
same,TGI,NCI/ADR-RES ovarian,> 100 µM
same,TGI,OVCAR-3 ovarian,51.1 µM
same,TGI,OVCAR-4 ovarian,> 100 µM
same,TGI,OVCAR-5 ovarian,> 100 µM
same,TGI,OVCAR-8 ovarian,> 100 µM
same,TGI,PC-3 prostate,79.1 µM
same,TGI,RPMI-8226 leukemia,> 100 µM
same,TGI,RXF 393 renal,38.5 µM
same,TGI,SF-268 CNS,> 100 µM
same,TGI,SF-295 CNS,76.2 µM
same,TGI,SK-MEL-2 melanoma,39 µM
same,TGI,SK-MEL-28 melanoma,> 100 µM
same,TGI,SK-MEL-5 melanoma,> 100 µM
same,TGI,SK-OV-3 ovarian,> 100 µM
same,TGI,SN12C renal,> 100 µM
same,TGI,SNB-19 CNS,> 100 µM
same,TGI,SNB-75 CNS,> 100 µM
same,TGI,SR leukemia,> 100 µM
same,TGI,SW-620 colon,> 100 µM
same,TGI,T-47D breast,> 100 µM
same,TGI,U251 CNS,37.8 µM
same,TGI,UACC-62 melanoma,50.9 µM
same,TGI,UO-31 renal,> 100 µM
CC(C(=O)NCNC(=O)c1ccccc1)C(=O)NCc1ccccc1 (stereo not given),TGI,786-0 renal,> 100 µM
same,TGI,A549 NSCLC,> 100 µM
same,TGI,ACHN renal,> 100 µM
same,TGI,BT-549 breast,> 100 µM
same,TGI,CAKI-1 renal,> 100 µM
same,TGI,CCRF-CEM leukemia,> 100 µM
same,TGI,COLO 205 colon,> 100 µM
same,TGI,DU-145 prostate,> 100 µM
same,TGI,EKVX NSCLC,> 100 µM
same,TGI,HCT-116 colon,> 100 µM
same,TGI,HCT-15 colon,> 100 µM
same,TGI,HL-60(TB) leukemia,> 100 µM
same,TGI,HOP-92 NSCLC,> 100 µM
same,TGI,HS 578T breast,> 100 µM
same,TGI,HT29 colon,> 100 µM
same,TGI,IGROV1 ovarian,> 100 µM
same,TGI,KM12 colon,> 100 µM
same,TGI,M14 melanoma,> 100 µM
same,TGI,MALME-3M melanoma,> 100 µM
same,TGI,MCF7 breast,> 100 µM
same,TGI,MDA-MB-231 breast,> 100 µM
same,TGI,MDA-MB-435,> 100 µM
same,TGI,MDA-N,> 100 µM
same,TGI,MOLT-4 leukemia,> 100 µM
same,TGI,NCI-H226 lung,> 100 µM
same,TGI,NCI-H23 lung,> 100 µM
same,TGI,NCI-H460 lung,> 100 µM
same,TGI,NCI-H522 lung,> 100 µM
same,TGI,NCI/ADR-RES ovarian,> 100 µM
same,TGI,OVCAR-5 ovarian,> 100 µM
same,TGI,OVCAR-8 ovarian,> 100 µM
same,TGI,PC-3 prostate,> 100 µM
same,TGI,RPMI-8226 leukemia,> 100 µM
same,TGI,RXF 393 renal,> 100 µM
same,TGI,SF-268 CNS,> 100 µM
same,TGI,SF-295 CNS,> 100 µM
same,TGI,SF-539 CNS,> 100 µM
same,TGI,SK-MEL-2 melanoma,> 100 µM
same,TGI,SK-MEL-5 melanoma,> 100 µM
same,TGI,SK-OV-3 ovarian,> 100 µM
same,TGI,SN12C renal,> 100 µM
same,TGI,SNB-19 CNS,> 100 µM
same,TGI,SNB-75 CNS,> 100 µM
same,TGI,SR leukemia,> 100 µM
same,TGI,SW-620 colon,> 100 µM
same,TGI,T-47D breast,> 100 µM
same,TGI,TK-10 renal,> 100 µM
same,TGI,U251 CNS,> 100 µM
same,TGI,UACC-257 melanoma,> 100 µM
same,TGI,UACC-62 melanoma,> 100 µM
same,TGI,UO-31 renal,> 100 µM
